Measured values: publication PMC3048208 (British Journal of Cancer, 2011)
Where a name gives a salt, the structure may show the parent alone. Marks after values point to notes of the source that are not given here.

System: patients with advanced solid tumours
Experiment: Phase I safety: DLT and adverse events (CTCAE v3.0)
[1] = All grades, level 1, 10 mg 3 days every 2 weeks, 3 patients
[2] = All grades, level 2, 10 mg, 6 patients
[3] = All grades, level 3, 20 mg, 6 patients
[4] = All grades, level 4, 30 mg, 4 patients
[5] = All grades, level 5, 50 mg, 4 patients
[6] = All grades, level 5.5, 60 mg, 7 patients
[7] = All grades, level 6, 70 mg, 6 patients
[8] = All grades, level 7, 90 mg, 2 patients
[9] = Grades 3/4, level 1, 10 mg 3 days every 2 weeks, 3 patients

## CCCCc1nc2cc(/C=C/C(=O)NO)ccc2n1CCN(CC)CC [SB939, 3-[2-butyl-1-(2-diethylaminoethyl)-1H-benzoimidazol-5-yl]-N-hydroxyacrylami-hydrochloride]
60 mg
  Grade 2 raised AST and hyperbilirubinemia, no. of patients: 3
  Grade 3 ALT rise, no. of patients: two
70 mg
  Dose reductions, patients: 2 of 6
90 mg
  Dose reductions, patients: 2 of 2
[1]
  ALT (raised), no. of patients: 0
  AST (raised), no. of patients: 1
  Abdominal pain, no. of patients: 0
  Alkaline phophatase (raised), no. of patients: 1
  Altered taste, no. of patients: 0
  Anaemia, no. of patients: 2
  Anorexia, no. of patients: 0
  Bilirubin (raised), no. of patients: 0
  Cardiac arrythmia other, no. of patients: 0
  Cardiac dysfunction, no. of patients: 0
  Cardiac ischaemia, no. of patients: 0
  Constipation, no. of patients: 0
  Creatinine (raised), no. of patients: 0
  Diarrhoea, no. of patients: 0
  Fatigue, no. of patients: 0
  Leukopenia, no. of patients: 1
  Lymphopenia, no. of patients: 0
  Mucositis, no. of patients: 1
  Myositis, no. of patients: 0
  Nausea, no. of patients: 0
  Neutropenia, no. of patients: 1
  QT prolongation, no. of patients: 0
  Supra ventricular arrythmia, no. of patients: 0
  Syncope, no. of patients: 0
  Thrombocytopenia, no. of patients: 0
  Ventricular arrythmias (PVCs), no. of patients: 0
  Ventricular bigemini, no. of patients: 0
  Vomiting, no. of patients: 0
[2]
  ALT (raised), no. of patients: 1
  AST (raised), no. of patients: 3
  Abdominal pain, no. of patients: 0
  Alkaline phophatase (raised), no. of patients: 5
  Altered taste, no. of patients: 0
  Anaemia, no. of patients: 6
  Anorexia, no. of patients: 0
  Bilirubin (raised), no. of patients: 1
  CPK, no. of patients: 0
  Cardiac arrythmia other, no. of patients: 0
  Cardiac dysfunction, no. of patients: 0
  Cardiac ischaemia, no. of patients: 0
  Constipation, no. of patients: 0
  Creatinine (raised), no. of patients: 1
  Diarrhoea, no. of patients: 1
  Fatigue, no. of patients: 2
  Leukopenia, no. of patients: 2
  Lymphopenia, no. of patients: 5
  Mucositis, no. of patients: 1
  Myositis, no. of patients: 0
  Nausea, no. of patients: 0
  Neutropenia, no. of patients: 1
  QT prolongation, no. of patients: 1
  Supra ventricular arrythmia, no. of patients: 0
  Syncope, no. of patients: 0
  Thrombocytopenia, no. of patients: 2
  Ventricular arrythmias (PVCs), no. of patients: 1 ^c
  Ventricular bigemini, no. of patients: 1 ^c
  Vomiting, no. of patients: 0
[3]
  ALT (raised), no. of patients: 2
  AST (raised), no. of patients: 3
  Abdominal pain, no. of patients: 0
  Alkaline phophatase (raised), no. of patients: 4
  Altered taste, no. of patients: 1
  Anaemia, no. of patients: 5
  Anorexia, no. of patients: 2
  Bilirubin (raised), no. of patients: 1
  CPK, no. of patients: 1
  Cardiac arrythmia other, no. of patients: 0
  Cardiac dysfunction, no. of patients: 0
  Cardiac ischaemia, no. of patients: 0
  Constipation, no. of patients: 0
  Creatinine (raised), no. of patients: 1
  Diarrhoea, no. of patients: 1
  Fatigue, no. of patients: 2
  Leukopenia, no. of patients: 1
  Lymphopenia, no. of patients: 2
  Mucositis, no. of patients: 0
  Myositis, no. of patients: 1
  Nausea, no. of patients: 2
  Neutropenia, no. of patients: 1
  QT prolongation, no. of patients: 0
  Supra ventricular arrythmia, no. of patients: 0
  Syncope, no. of patients: 1
  Thrombocytopenia, no. of patients: 1
  Ventricular arrythmias (PVCs), no. of patients: 0
  Ventricular bigemini, no. of patients: 0
  Vomiting, no. of patients: 1
[4]
  ALT (raised), no. of patients: 2
  AST (raised), no. of patients: 1
  Abdominal pain, no. of patients: 0
  Alkaline phophatase (raised), no. of patients: 2
  Altered taste, no. of patients: 0
  Anaemia, no. of patients: 4
  Anorexia, no. of patients: 0
  Bilirubin (raised), no. of patients: 1
  CPK, no. of patients: 1
  Cardiac arrythmia other, no. of patients: 0
  Cardiac dysfunction, no. of patients: 0
  Cardiac ischaemia, no. of patients: 0
  Constipation, no. of patients: 0
  Creatinine (raised), no. of patients: 2
  Diarrhoea, no. of patients: 1
  Fatigue, no. of patients: 1
  Leukopenia, no. of patients: 2
  Lymphopenia, no. of patients: 2
  Mucositis, no. of patients: 0
  Myositis, no. of patients: 0
  Nausea, no. of patients: 0
  Neutropenia, no. of patients: 2
  QT prolongation, no. of patients: 0
  Supra ventricular arrythmia, no. of patients: 0
  Syncope, no. of patients: 0
  Thrombocytopenia, no. of patients: 0
  Ventricular arrythmias (PVCs), no. of patients: 0
  Ventricular bigemini, no. of patients: 0
  Vomiting, no. of patients: 0
[5]
  ALT (raised), no. of patients: 0
  AST (raised), no. of patients: 2
  Abdominal pain, no. of patients: 0
  Alkaline phophatase (raised), no. of patients: 2
  Altered taste, no. of patients: 0
  Anaemia, no. of patients: 4
  Anorexia, no. of patients: 1
  Bilirubin (raised), no. of patients: 0
  CPK, no. of patients: 0
  Cardiac arrythmia other, no. of patients: 0
  Cardiac dysfunction, no. of patients: 0
  Cardiac ischaemia, no. of patients: 0
  Constipation, no. of patients: 0
  Creatinine (raised), no. of patients: 0
  Diarrhoea, no. of patients: 0
  Fatigue, no. of patients: 3
  Leukopenia, no. of patients: 1
  Lymphopenia, no. of patients: 4
  Mucositis, no. of patients: 0
  Myositis, no. of patients: 0
  Nausea, no. of patients: 2
  Neutropenia, no. of patients: 1
  QT prolongation, no. of patients: 0
  Supra ventricular arrythmia, no. of patients: 0
  Syncope, no. of patients: 0
  Thrombocytopenia, no. of patients: 0
  Ventricular arrythmias (PVCs), no. of patients: 0
  Ventricular bigemini, no. of patients: 0
  Vomiting, no. of patients: 2
[6]
  ALT (raised), no. of patients: 4
  AST (raised), no. of patients: 5
  Abdominal pain, no. of patients: 0
  Alkaline phophatase (raised), no. of patients: 6
  Altered taste, no. of patients: 1
  Anaemia, no. of patients: 7
  Anorexia, no. of patients: 4
  Bilirubin (raised), no. of patients: 2
  CPK, no. of patients: 0
  Cardiac arrythmia other, no. of patients: 1
  Cardiac dysfunction, no. of patients: 0
  Cardiac ischaemia, no. of patients: 0
  Constipation, no. of patients: 0
  Creatinine (raised), no. of patients: 2
  Diarrhoea, no. of patients: 4
  Fatigue, no. of patients: 6
  Leukopenia, no. of patients: 5
  Lymphopenia, no. of patients: 6
  Mucositis, no. of patients: 0
  Myositis, no. of patients: 0
  Nausea, no. of patients: 5
  Neutropenia, no. of patients: 5
  QT prolongation, no. of patients: 1
  Supra ventricular arrythmia, no. of patients: 0
  Syncope, no. of patients: 0
  Thrombocytopenia, no. of patients: 5
  Ventricular arrythmias (PVCs), no. of patients: 0
  Ventricular bigemini, no. of patients: 0
  Vomiting, no. of patients: 4
[7]
  ALT (raised), no. of patients: 1
  AST (raised), no. of patients: 2
  Abdominal pain, no. of patients: 0
  Alkaline phophatase (raised), no. of patients: 3
  Altered taste, no. of patients: 0
  Anaemia, no. of patients: 6
  Anorexia, no. of patients: 3
  Bilirubin (raised), no. of patients: 0
  CPK, no. of patients: 1
  Cardiac arrythmia other, no. of patients: 0
  Cardiac dysfunction, no. of patients: 0
  Cardiac ischaemia, no. of patients: 0
  Constipation, no. of patients: 0
  Creatinine (raised), no. of patients: 2
  Diarrhoea, no. of patients: 0
  Fatigue, no. of patients: 4
  Leukopenia, no. of patients: 3
  Lymphopenia, no. of patients: 4
  Mucositis, no. of patients: 1
  Myositis, no. of patients: 0
  Nausea, no. of patients: 4
  Neutropenia, no. of patients: 3
  QT prolongation, no. of patients: 1
  Supra ventricular arrythmia, no. of patients: 0
  Syncope, no. of patients: 0
  Thrombocytopenia, no. of patients: 6
  Ventricular arrythmias (PVCs), no. of patients: 0
  Ventricular bigemini, no. of patients: 0
  Vomiting, no. of patients: 2
[8]
  ALT (raised), no. of patients: 2
  AST (raised), no. of patients: 2
  Abdominal pain, no. of patients: 0
  Alkaline phophatase (raised), no. of patients: 1
  Altered taste, no. of patients: 1
  Anaemia, no. of patients: 2
  Anorexia, no. of patients: 1
  Bilirubin (raised), no. of patients: 1
  CPK, no. of patients: 1
  Cardiac arrythmia other, no. of patients: 1
  Cardiac dysfunction, no. of patients: 1
  Cardiac ischaemia, no. of patients: 1
  Constipation, no. of patients: 0
  Creatinine (raised), no. of patients: 2
  Diarrhoea, no. of patients: 0
  Fatigue, no. of patients: 2 ^c
  Leukopenia, no. of patients: 1
  Lymphopenia, no. of patients: 2
  Mucositis, no. of patients: 0
  Myositis, no. of patients: 0
  Nausea, no. of patients: 2
  Neutropenia, no. of patients: 1
  QT prolongation, no. of patients: 1
  Supra ventricular arrythmia, no. of patients: 1
  Syncope, no. of patients: 0
  Thrombocytopenia, no. of patients: 2
  Ventricular arrythmias (PVCs), no. of patients: 1
  Ventricular bigemini, no. of patients: 1
  Vomiting, no. of patients: 2 ^c
[9]
  ALT (raised), no. of patients: 0
  AST (raised), no. of patients: 0
  Abdominal pain, no. of patients: 0
  Alkaline phophatase (raised), no. of patients: 0
  Altered taste, no. of patients: 0
  Anaemia, no. of patients: 0
  Anorexia, no. of patients: 0
  Bilirubin (raised), no. of patients: 0
  Cardiac arrythmia other, no. of patients: 0
  Cardiac dysfunction, no. of patients: 0
  Cardiac ischaemia, no. of patients: 0
  Constipation, no. of patients: 0
  Creatinine (raised), no. of patients: 0
  Diarrhoea, no. of patients: 0
  Fatigue, no. of patients: 0
  Leukopenia, no. of patients: 0
  Lymphopenia, no. of patients: 0
  Mucositis, no. of patients: 0
